Test results: PubChem BioAssay (NCI)
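How tested: cells in 96-well plates exposed to compound for 48 hours at five concentrations. GI50 is the concentration that inhibits growth by half. TGI marks complete inhibition of growth.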

Key:
Assay in all cases: DTP human tumour cell line panel, 48 h
[1] = tested on: HT29 colon
[2] = tested on: NCI-H226 lung
[3] = tested on: BT-549 breast
[4] = tested on: OVCAR-5 ovarian
[5] = tested on: CCRF-CEM leukemia
[6] = tested on: SF-295 CNS
[7] = tested on: HS 578T breast
[8] = tested on: UACC-257 melanoma
[9] = tested on: COLO 205 colon
[10] = tested on: OVCAR-8 ovarian

SMILES	GI50 [1]	TGI [1]	GI50 [2]	TGI [2]	GI50 [3]	TGI [3]	GI50 [4]	TGI [4]	GI50 [5]	TGI [5]	GI50 [6]	TGI [6]	GI50 [7]	TGI [7]	GI50 [8]	TGI [8]	GI50 [9]	TGI [9]	GI50 [10]	TGI [10]
COc1cc(C(=O)N2CCN(c3ncnc4ccccc34)CC2)c(N)cc1OCc1ccccc1	12.7 µM	27.4 µM	16.1 µM	33.3 µM	11.3 µM	25 µM	15.3 µM	31.5 µM	23.8 µM	58.1 µM	12.8 µM	27.8 µM	17.1 µM	55.7 µM	21.7 µM	48.5 µM	5.14 µM	20.2 µM	–	–
CCN(CC)CC(O)CNc1c2ccc([N+](=O)[O-])cc2nc2cc(OC)c(OC)cc12 (configuration not stated)	0.258 µM	1.2 µM	0.392 µM	2.01 µM	1.81 µM	3.85 µM	0.306 µM	2.55 µM	0.517 µM	10.4 µM	0.41 µM	2.06 µM	0.728 µM	5.09 µM	1.45 µM	3.83 µM	–	–	0.55 µM	11 µM
COc1ccc2c(=O)cc(C(Cl)(Cl)Cl)oc2c1	0.345 µM	10.9 µM	14.8 µM	35.8 µM	0.336 µM	10.6 µM	0.385 µM	15.8 µM	0.309 µM	–	1.27 µM	13 µM	0.979 µM	48.6 µM	12 µM	41.6 µM	–	–	0.338 µM	10.4 µM
Cc1ccc(NC(=O)CC2Sc3ccccc3NC2=O)c(C)c1 (configuration not stated)	–	–	–	33.5 µM	–	–	–	73 µM	–	78.4 µM	–	40.2 µM	–	–	–	39.7 µM	–	38.7 µM	–	37.4 µM
COC(=O)C(C(=O)OC)C1CCCC(=O)C1 (configuration not stated)	–	> 100 µM	–	–	–	–	–	> 100 µM	–	> 100 µM	–	> 100 µM	–	–	–	> 100 µM	–	> 100 µM	–	> 100 µM
Cn1cnc([N+](=O)[O-])c1Sc1nccn1-c1cccc2ccccc12	–	88.1 µM	–	59.6 µM	–	–	–	76.1 µM	–	68.5 µM	–	> 100 µM	–	–	–	> 100 µM	–	30.3 µM	–	58.8 µM
CC(=O)OC[C@@H](COC(=O)/C=C/c1ccc(O)cc1)OC1OC(CO)C(O)C(O)C1O (some centres not stated)	–	> 100 µM	–	> 100 µM	–	–	–	> 100 µM	–	> 100 µM	–	> 100 µM	–	–	–	> 100 µM	–	> 100 µM	–	> 100 µM
C/C(CC(=O)Nc1ccc(C)c(C)c1)=N\NC(N)=O	–	> 100 µM	–	> 100 µM	–	–	–	> 100 µM	–	> 100 µM	–	> 100 µM	–	–	–	> 100 µM	–	> 100 µM	–	> 100 µM
COc1ccc2ccccc2c1C1NC(=O)c2ccccc2N1 (configuration not stated)	–	–	–	13.4 µM	–	> 100 µM	–	> 31.3 µM	–	> 28.3 µM	–	–	–	> 31.3 µM	–	> 100 µM	–	–	–	31.8 µM
Cc1cccc(C(C)(C)C)c1NC(=O)CC1C(=O)Nc2ccccc2S1(=O)=O (configuration not stated)	–	16.3 µM	–	32.8 µM	–	–	–	27 µM	–	7.8 µM	–	20 µM	–	–	–	> 100 µM	–	–	–	22.4 µM
CCOC(=O)N1CCC(=O)C(CNC23CC4CC(CC(C4)C2)C3)C1 (configuration not stated)	–	43.7 µM	–	> 100 µM	–	–	–	> 100 µM	–	35.9 µM	–	> 100 µM	–	–	–	42.4 µM	–	> 100 µM	–	44.5 µM
CN1C(=O)C2C3C=C4c5ccccc5N(c5ccccc5)C4(C2C1=O)[C@H]1C(=O)N(C)C(=O)[C@@H]31 (some centres not stated)	–	> 100 µM	–	> 100 µM	–	–	–	> 100 µM	–	> 100 µM	–	> 100 µM	–	–	–	> 100 µM	–	> 100 µM	–	> 100 µM
CCC[CH2][Sn]1([CH2]CCC)[O]CC(CN(C)Cc2ccccc2)[O]1 (configuration not stated)	15.2 µM	34.3 µM	17.2 µM	35.8 µM	–	–	12.7 µM	25.3 µM	2.37 µM	8.09 µM	9.13 µM	22.4 µM	–	–	7.85 µM	20.2 µM	5.31 µM	16 µM	11.9 µM	24.6 µM
Cc1cccc(C)c1NC(=O)C1C(=O)N(c2c(C)cccc2C)C(=O)/C1=N\N (configuration not stated)	–	> 100 µM	–	> 100 µM	–	–	–	> 100 µM	–	> 100 µM	–	> 100 µM	–	–	–	> 100 µM	–	> 100 µM	–	> 100 µM
Nc1nc2c(ncn2C2C=CC(CO)C2)c(=O)[nH]1 (configuration not stated)	–	> 100 µM	–	> 100 µM	–	> 100 µM	–	> 100 µM	–	–	–	> 100 µM	–	> 100 µM	–	> 100 µM	–	> 100 µM	–	> 100 µM
CO/N=C(\C)c1ccc(Nc2cc(-c3ccccc3)nc3ccc(OC)cc23)cc1	5.33 µM	> 100 µM	2.25 µM	5.63 µM	5.61 µM	21.4 µM	5.2 µM	40.3 µM	–	–	2.02 µM	4.82 µM	3.5 µM	9.44 µM	4.64 µM	> 100 µM	7.02 µM	> 100 µM	–	–
COC(=O)c1cccn1C(=O)n1cccc1	–	> 100 µM	–	> 100 µM	–	–	–	> 100 µM	–	> 100 µM	–	> 100 µM	–	–	–	> 100 µM	–	> 100 µM	–	> 100 µM
CC(C)(C)c1cc(-n2c(-c3ccc(Cl)cc3)nc3cc(C(=O)Nc4ccc(Cl)cc4)ccc32)n[nH]1	> 100 µM	> 100 µM	10.4 µM	> 100 µM	5.75 µM	> 100 µM	> 100 µM	> 100 µM	–	–	2.93 µM	> 100 µM	7.91 µM	93 µM	7.92 µM	> 100 µM	4.71 µM	> 100 µM	9.03 µM	> 100 µM
CC(=O)C1C(c2ccc(N(C)C)cc2)c2cc3c(cc2OC1(C)O)OCO3 (configuration not stated)	–	58.5 µM	–	–	–	–	–	–	–	> 100 µM	–	71.2 µM	–	–	–	> 100 µM	–	> 100 µM	–	> 100 µM
CCN(CC)c1ccc(C(O)C2=CC(=O)c3ccccc3C2=O)cc1 (configuration not stated)	–	–	1.93 µM	4.63 µM	3.07 µM	8.22 µM	1.94 µM	3.66 µM	0.31 µM	–	2.23 µM	7.45 µM	1.32 µM	5.53 µM	1.96 µM	5.02 µM	1.58 µM	3.59 µM	–	–
